Experimental data taken from PubChem BioAssay AID224 (DTP/NCI, 2004).
Values joined by “and” are separate entries in the source; they are usually repeats but may differ in a detail not shown here. Identical values can stand only once. Toxic doses and inconclusive results are not listed. Rule for the calls: active = survival T/C of 150% or more; inactive = T/C below 125% in these data.

Test system: P335 leukemia ip, BDF1 mice, survival T/C %
Test: NCI In Vivo Anticancer Drug Screen. Data for tumor model P335 Leukemia (intraperitoneal) in B6D2F1 (BDF1) mice
Details: endpoint: mean survival time, higher = longer survival
Description: The antitumor activity of compounds was measured in mice bearing transplantable tumors. Survival or tumor size were measured and the results are expressed as the measurement made in the treated group (T) divided by the measurement made in the vehicle treated control group (C). The tumor model used in this assay is P335 Leukemia (intraperitoneal) in B6D2F1 (BDF1) mice

Measured: T/C

CN(C)CC(=O)c1ccc(O)c(O)c1
inactive: dose: 15.6 mg/kg/injection, schedule: Q01DX Z (ip), vehicle: saline 103 % of control | dose: 31.25 mg/kg/injection, schedule: Q01DX Z (ip), vehicle: saline 109 % of control | dose: 62.5 mg/kg/injection, schedule: Q01DX Z (ip), vehicle: saline 113 % of control | dose: 125.0 mg/kg/injection, schedule: Q01DX Z (ip), vehicle: saline 109 % of control and 119 % of control | dose: 500.0 mg/kg/injection, schedule: Q01DX Z (ip), vehicle: saline 89 % of control

CSCS(=O)C[C@H](CO)NC(=O)/C=C/c1c(C)[nH]c(=O)[nH]c1=O (some centres not stated)
inactive: dose: 0.12 mg/kg/injection, schedule: Q01DX Z (ip), vehicle: saline 100 % of control | dose: 0.25 mg/kg/injection, schedule: Q01DX Z (ip), vehicle: saline 107 % of control | dose: 0.5 mg/kg/injection, schedule: Q01DX Z (ip), vehicle: saline 105 % of control | dose: 1.0 mg/kg/injection, schedule: Q01DX Z (ip), vehicle: saline 110 % of control

CCN(CC)C(=S)S
inactive: dose: 125.0 mg/kg/injection, schedule: Q01DX Z (ip), vehicle: other 92 % of control | dose: 250.0 mg/kg/injection, schedule: Q01DX Z (ip), vehicle: other 105 % of control | dose: 500.0 mg/kg/injection, schedule: Q01DX Z (ip), vehicle: other 106 % of control | dose: 500.0 mg/kg/injection, schedule: Q01DX Z (ip), vehicle: water 102 % of control | dose: 1000.0 mg/kg/injection, schedule: Q01DX Z (ip), vehicle: other 103 % of control | dose: 1000.0 mg/kg/injection, schedule: Q01DX Z (ip), vehicle: water 120 % of control

O=c1[nH]cc(F)c(=O)[nH]1
inactive: dose: 0.78 mg/kg/injection, schedule: Q01DX Z (ip), vehicle: saline 103 % of control | dose: 2.34 mg/kg/injection, schedule: Q01DX Z (ip), vehicle: saline 123 % of control | dose: 4.68 mg/kg/injection, schedule: Q01DX Z (ip), vehicle: saline 118 % of control | dose: 9.35 mg/kg/injection, schedule: Q01DX Z (ip), vehicle: saline 113 % of control | dose: 12.5 mg/kg/injection, schedule: Q01DX Z (ip), vehicle: saline 100 % of control | dose: 18.7 mg/kg/injection, schedule: Q01DX Z (ip), vehicle: saline 108 % of control | dose: 100.0 mg/kg/injection, schedule: Q01DX Z (ip), vehicle: saline 93 % of control

NC(=O)c1cn(C2OC(CO)C(O)C2O)c2ncnc(N)c12 (configuration not stated)
inactive: dose: 0.25 mg/kg/injection, schedule: Q01DX Z (ip), vehicle: carboxymethylcellulose (CMC) 101 % of control | dose: 0.5 mg/kg/injection, schedule: Q01DX Z (ip), vehicle: carboxymethylcellulose (CMC) 86 % of control | dose: 16.0 micrograms/kg/injection, schedule: Q01DX Z (ip), vehicle: carboxymethylcellulose (CMC) 110 % of control | dose: 31.0 micrograms/kg/injection, schedule: Q01DX Z (ip), vehicle: carboxymethylcellulose (CMC) 104 % of control | dose: 63.0 micrograms/kg/injection, schedule: Q01DX Z (ip), vehicle: carboxymethylcellulose (CMC) 105 % of control

C[C@]12C=CC(=O)C=C1CC[C@@H]1[C@@H]2[C@@H](O)C[C@@]2(C)[C@H]1CC[C@]2(O)C(=O)CO
inactive: dose: 2.0 mg/kg/injection, schedule: Q01DX Z (sc), vehicle: steriod suspending solution 97 % of control | dose: 4.0 mg/kg/injection, schedule: Q01DX Z (sc), vehicle: steriod suspending solution 103 % of control and 111 % of control | dose: 8.0 mg/kg/injection, schedule: Q01DX Z (sc), vehicle: steriod suspending solution 101 % of control and 117 % of control | dose: 16.0 mg/kg/injection, schedule: Q01DX Z (sc), vehicle: steriod suspending solution 95 % of control and 117 % of control | dose: 32.0 mg/kg/injection, schedule: Q01DX Z (sc), vehicle: steriod suspending solution 95 % of control
